Data from patent US10525041B2, “Fluoroalkyl-substituted aryltriazole derivatives and uses thereof” (BAYER PHARMA AKTIENGESELLSCHAFT, priority 2016, dated 2020).

Columns and labels:
human V1a receptor = target: T1, human V1a receptor (Homo sapiens, UniProt P37288); assay: Cellular in vitro assay for vasopressin receptor activity, V1a cell line (aequorin luminescence); type: cell-based; conditions: for IC50: CHO cell line transfected with human V1a receptor, agonist [Arg8]-vasopressin at EC50 concentration, read-out: IC50hV1a; for ratio IC50 hV2/hV1a: ratio of the IC50 on human V2 to the IC50 on human V1a
T1 construct: expressed in transfected cells; host or cells: CHO K1 (ATCC), also stably transfected with a modified aequorin
T1 sequence (P37288 whole entry): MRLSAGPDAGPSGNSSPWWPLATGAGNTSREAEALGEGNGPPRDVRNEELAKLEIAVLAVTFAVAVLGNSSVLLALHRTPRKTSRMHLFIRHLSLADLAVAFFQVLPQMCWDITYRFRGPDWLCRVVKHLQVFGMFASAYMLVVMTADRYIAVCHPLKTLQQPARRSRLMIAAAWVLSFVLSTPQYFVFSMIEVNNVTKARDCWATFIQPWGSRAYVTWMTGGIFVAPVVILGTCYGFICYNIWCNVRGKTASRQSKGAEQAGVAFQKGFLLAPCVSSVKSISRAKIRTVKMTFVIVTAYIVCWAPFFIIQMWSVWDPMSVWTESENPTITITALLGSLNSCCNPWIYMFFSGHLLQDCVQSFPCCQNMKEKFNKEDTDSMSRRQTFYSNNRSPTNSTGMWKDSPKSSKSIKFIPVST
Procedure: (§1) B-1. Cellular In Vitro Assay for Determining Vasopressin Receptor Activity
(§2) The identification of agonists and antagonists of the V1a and V2 vasopressin receptors from humans, rats and dogs as well as the quantification of the activity of the compounds of the invention is carried out using recombinant cell lines. These cell lines originally derive from a hamster's ovary epithelial cell (Chinese Hamster Ovary, CHO K1, ATCC: American Type Culture Collection, Manassas, Va. 20108, USA). The test cell lines constitutively express the human, rat or dog V1a or V2 receptors. In case of the Gαq-coupled V1a receptors, cells are also stably transfected with a modified form of the calcium-sensitive photoproteins aequorin (human and rat V1a) or obelin (dog V1a), which, after reconstitution with the cofactor coelenterazine, emit light when there are increases in free calcium concentrations [Rizzuto R, Simpson A W, Brini M, Pozzan T, Nature 358, 325-327 (1992); Illarionov B A, Bondar V S, Illarionova V A, Vysotski E S, Gene 153 (2), 273-274 (1995)]. The resulting vasopressin receptor cells react to stimulation of the recombinantly expressed V1a receptors by intracellular release of calcium ions, which can be quantified by the resulting photoprotein luminescence. The Gs-coupled V2 receptors are stably transfected into cell lines expressing the gene for firefly luciferase under control of a CRE-responsible promoter. Activation of V2 receptors induces the activation of the CRE-responsive promoter via cAMP increase, thereby inducing the expression of firefly luciferase. The light emitted by photoproteins of V1a cell lines as well as the light emitted by firefly luciferase of V2 cell lines corresponds to the activation or inhibition of the respective vasopressin receptor. The bioluminescence of the cell lines is detected using a suitable luminometer [Milligan G, Marshall F, Rees S, Trends in Pharmacological Sciences 17, 235-237 (1996)].
Vasopressin V1a Receptor Cell Lines:
On the day before the assay, the cells are plated out in culture medium (DMEM/F12, 2% FCS, 2 mM glutamine, 10 mM HEPES, 5 μg/ml coelenterazine) in 384-well microtiter plates and kept in a cell incubator (96% humidity, 5% v/v CO2, 37° C.). On the day of the assay, test compounds in various concentrations are placed for 10 minutes in the wells of the microtiter plate before the agonist [Arg^8]-vasopressin at EC50 concentration is added. The resulting light signal is measured immediately in a luminometer.
(§3) Table 1A below lists individual IC50 values for the compounds of the invention (including racemic mixtures as well as separated enantiomers) that were obtained from cell lines transfected with the human V1a or V2 receptor: […]

human V2 receptor = target: T2, human V2 receptor (Homo sapiens, UniProt P30518); assay: Cellular in vitro assay for vasopressin receptor activity, V2 cell line (CRE-luciferase); type: cell-based; conditions: CHO cell line transfected with human V2 receptor; agonist [Arg8]-vasopressin at EC50 concentration, 3 hours; read-out: IC50hV2
T2 construct: expressed in transfected cells; host or cells: CHO K1 (ATCC) line expressing firefly luciferase under a CRE-responsive promoter
T2 sequence (P30518 whole entry): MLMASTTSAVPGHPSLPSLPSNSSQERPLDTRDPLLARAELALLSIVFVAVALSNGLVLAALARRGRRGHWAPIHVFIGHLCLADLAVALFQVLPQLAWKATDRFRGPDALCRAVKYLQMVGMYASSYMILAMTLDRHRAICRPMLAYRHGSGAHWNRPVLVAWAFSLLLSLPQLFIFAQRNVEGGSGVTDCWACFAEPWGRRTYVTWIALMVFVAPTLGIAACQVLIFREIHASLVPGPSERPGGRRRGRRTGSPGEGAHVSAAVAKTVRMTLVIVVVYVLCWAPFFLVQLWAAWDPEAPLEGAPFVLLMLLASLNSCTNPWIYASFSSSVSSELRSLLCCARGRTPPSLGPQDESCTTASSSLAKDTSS
Procedure: as §1, §2
Vasopressin V2 Receptor Cell Lines:
On the day before the assay, the cells are plated out in culture medium (DMEM/F12, 2% FCS, 2 mM glutamine, 10 mM HEPES) in 384-well microtiter plates and kept in a cell incubator (96% humidity, 5% v/v CO2, 37° C.). On the day of the assay, test compounds in various concentrations and the agonist [Arg^8]-vasopressin at EC50 concentration are added together to the wells, and plates are incubated for 3 hours in a cell incubator. Upon addition of the cell lysis reagent Triton™ and the substrate luciferin, luminescence of firefly luciferase is measured in a luminometer.
as §3

Row | Structure (SMILES) | IC50 (human V1a receptor) [nM] | ratio IC50 hV2/hV1a (human V1a receptor) | IC50 (human V2 receptor) [nM]
1 | CC(F)c1nc(Cn2nc(-c3ccc(Cl)cc3)n(C[C@H](O)C(F)(F)F)c2=O)nn1-c1ccccc1OC(F)F (single isomer, unassigned) [Example 32] | 2.4 | 3.7 | 8.9
2 | CC(F)c1nc(Cn2nc(-c3ccc(Cl)cc3)n(C[C@H](O)C(F)(F)F)c2=O)nn1-c1ccccc1OC(F)F (single isomer, unassigned) [Example 33] | 2.15 | 0.8 | 1.8
3 | Cc1ccccc1-n1nc(Cn2nc(-c3ccc(Cl)cc3)n(C[C@H](O)C(F)(F)F)c2=O)nc1C(C)F (single isomer, unassigned) [Example 35] | 0.36 | 0.5 | 0.17
4 | Cc1ccccc1-n1nc(Cn2nc(-c3ccc(Cl)cc3)n(C[C@H](O)C(F)(F)F)c2=O)nc1C(C)F (single isomer, unassigned) [Example 36] | 0.65 | 1.5 | 0.98
5 | CC(F)c1nc(Cn2nc(-c3ccc(Cl)cc3)n(C[C@H](O)C(F)(F)F)c2=O)nn1-c1ccccc1C#N (single isomer, unassigned) [Example 39] | 22.2 | 11.7 | 261
6 | CC(F)c1nc(Cn2nc(-c3ccc(Cl)cc3)n(C[C@H](O)C(F)(F)F)c2=O)nn1-c1ccccc1C#N (single isomer, unassigned) [Example 40] | 28.5 | 14.7 | 420
7 | CC(F)c1nc(Cn2nc(-c3ccc(Cl)cc3)n(C[C@H](O)C(F)(F)F)c2=O)nn1-c1cnccc1C(F)(F)F (stereo partly drawn) [Example 7, 5-(4-Chlorophenyl)-2-({5-[1-fluoroethyl]-1-[4-(trifluoromethyl)pyridin-3-yl]-1H-1,2,4-triazol-3-yl}methyl)-4-[(2S)-3,3,3-trifluoro-2-hydroxypropyl]-2,4-dihydro-3H-1,2,4-triazol-3-one] | 1.13 | 11.1 | 12.5
8 | O=c1n(Cc2nc(C(F)F)n(-c3cccc(Cl)c3)n2)nc(-c2ccc(Cl)cc2)n1C[C@H](O)C(F)(F)F [Example 50, 5-(4-Chlorophenyl)-2-{[1-(3-chlorophenyl)-5-(difluoromethyl)-1H-1,2,4-triazol-3-yl]methyl}-4-[(2S)-3,3,3-trifluoro-2-hydroxypropyl]-2,4-dihydro-3H-1,2,4-triazol-3-one] | 36 | 0.1 | 2.59
9 | O=c1n(Cc2nc(C(F)F)n(-c3ccccc3Cl)n2)nc(-c2ccc(Cl)cc2)n1C[C@H](O)C(F)(F)F [Example 51, 5-(4-Chlorophenyl)-2-{[1-(2-chlorophenyl)-5-(difluoromethyl)-1H-1,2,4-triazol-3-yl]methyl}-4-[(2S)-3,3,3-trifluoro-2-hydroxypropyl]-2,4-dihydro-3H-1,2,4-triazol-3-one] | 1.47 | 1.5 | 2.2
10 | O=c1n(Cc2nc(C(F)F)n(-c3cccc(F)c3)n2)nc(-c2ccc(Cl)cc2)n1C[C@H](O)C(F)(F)F [Example 52, 5-(4-Chlorophenyl)-2-{[5-(difluoromethyl)-1-(3-fluorophenyl)-1H-1,2,4-triazol-3-yl]methyl}-4-[(2S)-3,3,3-trifluoro-2-hydroxypropyl]-2,4-dihydro-3H-1,2,4-triazol-3-one] | 10.8 | 0.5 | 5.92
11 | CC(F)(F)c1nc(Cn2nc(-c3ccc(Cl)cc3)n(C[C@H](O)C(F)(F)F)c2=O)nn1-c1ccccc1Cl [Example 53, 5-(4-Chlorophenyl)-2-{[1-(2-chlorophenyl)-5-(1,1-difluoroethyl)-1H-1,2,4-triazol-3-yl]methyl}-4-[(2S)-3,3,3-trifluoro-2-hydroxypropyl]-2,4-dihydro-3H-1,2,4-triazol-3-one] | 0.4 | 2.9 | 1.16

Further lines, results first:

Row | IC50 (human V1a receptor) [nM] | ratio IC50 hV2/hV1a (human V1a receptor) | IC50 (human V2 receptor) [nM] | Structure (SMILES)
12 | 0.93 | 12.2 | 11.2 | CC(F)(F)c1nc(Cn2nc(-c3ccc(Cl)cc3)n(C[C@H](O)C(F)(F)F)c2=O)nn1-c1cnccc1Cl [Example 54, 5-(4-Chlorophenyl)-2-{[1-(4-chloropyridin-3-yl)-5-(1,1-difluoroethyl)-1H-1,2,4-triazol-3-yl]methyl}-4-[(2S)-3,3,3-trifluoro-2-hydroxypropyl]-2,4-dihydro-3H-1,2,4-triazol-3-one]
13 | 60 | 0.1 | 5.23 | CC(F)(F)c1nc(Cn2nc(-c3ccc(Cl)cc3)n(C[C@H](O)C(F)(F)F)c2=O)nn1-c1cccc(Cl)c1 [Example 55, 5-(4-Chlorophenyl)-2-{[1-(3-chlorophenyl)-5-(1,1-difluoroethyl)-1H-1,2,4-triazol-3-yl]methyl}-4-[(2S)-3,3,3-trifluoro-2-hydroxypropyl]-2,4-dihydro-3H-1,2,4-triazol-3-one]
14 | 15.5 | 0.3 | 5.25 | CC(F)(F)c1nc(Cn2nc(-c3ccc(Cl)cc3)n(C[C@H](O)C(F)(F)F)c2=O)nn1-c1cccc(F)c1 [Example 56, 5-(4-Chlorophenyl)-2-{[5-(1,1-difluoroethyl)-1-(3-fluorophenyl)-1H-1,2,4-triazol-3-yl]methyl}-4-[(2S)-3,3,3-trifluoro-2-hydroxypropyl]-2,4-dihydro-3H-1,2,4-triazol-3-one]
15 | 2 | 12.3 | 24.5 | CC(F)(F)c1nc(Cn2nc(-c3ccc(Cl)cc3)n(C[C@H](O)C(F)(F)F)c2=O)nn1-c1cnccc1C(F)(F)F [Example 57, 5-(4-Chlorophenyl)-2-({5-(1,1-difluoroethyl)-1-[4-(trifluoromethyl)pyridin-3-yl]-1H-1,2,4-triazol-3-yl}methyl)-4-[(2S)-3,3,3-trifluoro-2-hydroxypropyl]-2,4-dihydro-3H-1,2,4-triazol-3-one]
16 | 1 | 3.4 | 3.4 | CC(F)(F)c1nc(Cn2nc(-c3ccc(Cl)cc3)n(C[C@H](O)C(F)(F)F)c2=O)nn1-c1ncccc1Cl [Example 58, 5-(4-Chlorophenyl)-2-{[1-(3-chloropyridin-2-yl)-5-(1,1-difluoroethyl)-1H-1,2,4-triazol-3-yl]methyl}-4-[(2S)-3,3,3-trifluoro-2-hydroxypropyl]-2,4-dihydro-3H-1,2,4-triazol-3-one]
17 | 4.7 | 5.7 | 26.7 | CC(F)(F)c1nc(Cn2nc(-c3ccc(Cl)cc3)n(C[C@H](O)C(F)(F)F)c2=O)nn1-c1ncccc1C(F)(F)F [Example 59, 5-(4-Chlorophenyl)-2-({5-(1,1-difluoroethyl)-1-[3-(trifluoromethyl)pyridin-2-yl]-1H-1,2,4-triazol-3-yl}methyl)-4-[(2S)-3,3,3-trifluoro-2-hydroxypropyl]-2,4-dihydro-3H-1,2,4-triazol-3-one]
18 | 1.73 | 6.7 | 11.6 | CC(F)(F)c1nc(Cn2nc(-c3ccc(Cl)cc3)n(C[C@H](O)C(F)(F)F)c2=O)nn1-c1ccccc1C(F)(F)F [Example 60, 5-(4-Chlorophenyl)-2-({5-(1,1-difluoroethyl)-1-[2-(trifluoromethyl)phenyl]-1H-1,2,4-triazol-3-yl}methyl)-4-[(2S)-3,3,3-trifluoro-2-hydroxypropyl]-2,4-dihydro-3H-1,2,4-triazol-3-one]
